Test system: Stress protein genes
Assay: DNA chip mRNA expression in yeast, stress protein genes (Table 6)
Assay type: cell-based, Saccharomyces cerevisiae S288C
Procedure, shortened: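 Values are treated/untreated fluorescence ratios from a whole-genome yeast DNA chip hybridized over 12 hours at 65° C with Cy3- or Cy5-labelled cDNA from poly(A) mRNA. Log-phase S288C yeast in YPD at 25° C had received a single toxic chemical for two hours, dosed to slow growth without killing.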

Oc1cc(Cl)c(Cl)cc1Cl [(6), 2,4,5-trichlorophenol]
The level of expressed mRNA in the presence of chemical substance/The level of expressed mRNA in the absence of chemical substance (yeast gene YAL005C): 1.6
The level of expressed mRNA in the presence of chemical substance/The level of expressed mRNA in the absence of chemical substance (yeast gene YAL015C): 0.7
The level of expressed mRNA in the presence of chemical substance/The level of expressed mRNA in the absence of chemical substance (yeast gene YBL075C): 0.8
The level of expressed mRNA in the presence of chemical substance/The level of expressed mRNA in the absence of chemical substance (yeast gene YBL093C): 0.8
The level of expressed mRNA in the presence of chemical substance/The level of expressed mRNA in the absence of chemical substance (yeast gene YBR044C): 1.0
The level of expressed mRNA in the presence of chemical substance/The level of expressed mRNA in the absence of chemical substance (yeast gene YBR054W): 1.1
The level of expressed mRNA in the presence of chemical substance/The level of expressed mRNA in the absence of chemical substance (yeast gene YBR067C): 1.1
The level of expressed mRNA in the presence of chemical substance/The level of expressed mRNA in the absence of chemical substance (yeast gene YBR072W): 32.2
The level of expressed mRNA in the presence of chemical substance/The level of expressed mRNA in the absence of chemical substance (yeast gene YBR126C): 2.9
The level of expressed mRNA in the presence of chemical substance/The level of expressed mRNA in the absence of chemical substance (yeast gene YBR169C): 4.9
The level of expressed mRNA in the presence of chemical substance/The level of expressed mRNA in the absence of chemical substance (yeast gene YCL035C): 5.1
The level of expressed mRNA in the presence of chemical substance/The level of expressed mRNA in the absence of chemical substance (yeast gene YCR021C): 2.2
The level of expressed mRNA in the presence of chemical substance/The level of expressed mRNA in the absence of chemical substance (yeast gene YCR060W): 3.3
The level of expressed mRNA in the presence of chemical substance/The level of expressed mRNA in the absence of chemical substance (yeast gene YCR083W): 2.4
The level of expressed mRNA in the presence of chemical substance/The level of expressed mRNA in the absence of chemical substance (yeast gene YDL022W): 2.1
The level of expressed mRNA in the presence of chemical substance/The level of expressed mRNA in the absence of chemical substance (yeast gene YDL025C): 0.6
The level of expressed mRNA in the presence of chemical substance/The level of expressed mRNA in the absence of chemical substance (yeast gene YDR033W): 6.7
The level of expressed mRNA in the presence of chemical substance/The level of expressed mRNA in the absence of chemical substance (yeast gene YDR077W): 1.0
The level of expressed mRNA in the presence of chemical substance/The level of expressed mRNA in the absence of chemical substance (yeast gene YDR098C): 1.1
The level of expressed mRNA in the presence of chemical substance/The level of expressed mRNA in the absence of chemical substance (yeast gene YDR155C): 1.5
The level of expressed mRNA in the presence of chemical substance/The level of expressed mRNA in the absence of chemical substance (yeast gene YDR258C): 2.4
The level of expressed mRNA in the presence of chemical substance/The level of expressed mRNA in the absence of chemical substance (yeast gene YDR293C): 0.9
The level of expressed mRNA in the presence of chemical substance/The level of expressed mRNA in the absence of chemical substance (yeast gene YDR436W): 1.1
The level of expressed mRNA in the presence of chemical substance/The level of expressed mRNA in the absence of chemical substance (yeast gene YDR513W): 2.1
The level of expressed mRNA in the presence of chemical substance/The level of expressed mRNA in the absence of chemical substance (yeast gene YDR519W): 1.3
The level of expressed mRNA in the presence of chemical substance/The level of expressed mRNA in the absence of chemical substance (yeast gene YEL030W): 0.6
The level of expressed mRNA in the presence of chemical substance/The level of expressed mRNA in the absence of chemical substance (yeast gene YEL039C): 1.5
The level of expressed mRNA in the presence of chemical substance/The level of expressed mRNA in the absence of chemical substance (yeast gene YER042W): 1.6
The level of expressed mRNA in the presence of chemical substance/The level of expressed mRNA in the absence of chemical substance (yeast gene YER057C): 1.6
The level of expressed mRNA in the presence of chemical substance/The level of expressed mRNA in the absence of chemical substance (yeast gene YER103W): 1.7
The level of expressed mRNA in the presence of chemical substance/The level of expressed mRNA in the absence of chemical substance (yeast gene YER125W): 0.7
The level of expressed mRNA in the presence of chemical substance/The level of expressed mRNA in the absence of chemical substance (yeast gene YFL014W): 9.3
The level of expressed mRNA in the presence of chemical substance/The level of expressed mRNA in the absence of chemical substance (yeast gene YFL016C): 1.3
The level of expressed mRNA in the presence of chemical substance/The level of expressed mRNA in the absence of chemical substance (yeast gene YFL020C): 2.0
The level of expressed mRNA in the presence of chemical substance/The level of expressed mRNA in the absence of chemical substance (yeast gene YFR052W): 3.2
The level of expressed mRNA in the presence of chemical substance/The level of expressed mRNA in the absence of chemical substance (yeast gene YGL073W): 1.9
The level of expressed mRNA in the presence of chemical substance/The level of expressed mRNA in the absence of chemical substance (yeast gene YGL115W): 1.2
The level of expressed mRNA in the presence of chemical substance/The level of expressed mRNA in the absence of chemical substance (yeast gene YGL181W): 1.9
The level of expressed mRNA in the presence of chemical substance/The level of expressed mRNA in the absence of chemical substance (yeast gene YGR088W): 1.3
The level of expressed mRNA in the presence of chemical substance/The level of expressed mRNA in the absence of chemical substance (yeast gene YHL028W): 1.8
The level of expressed mRNA in the presence of chemical substance/The level of expressed mRNA in the absence of chemical substance (yeast gene YHL046C): 0.8
The level of expressed mRNA in the presence of chemical substance/The level of expressed mRNA in the absence of chemical substance (yeast gene YHR030C): 0.9
The level of expressed mRNA in the presence of chemical substance/The level of expressed mRNA in the absence of chemical substance (yeast gene YHR057C): 1.3
The level of expressed mRNA in the presence of chemical substance/The level of expressed mRNA in the absence of chemical substance (yeast gene YHR104W): 1.2
The level of expressed mRNA in the presence of chemical substance/The level of expressed mRNA in the absence of chemical substance (yeast gene YIL011W): 0.7
The level of expressed mRNA in the presence of chemical substance/The level of expressed mRNA in the absence of chemical substance (yeast gene YIL033C): 2.0
The level of expressed mRNA in the presence of chemical substance/The level of expressed mRNA in the absence of chemical substance (yeast gene YIR037W): 2.7
The level of expressed mRNA in the presence of chemical substance/The level of expressed mRNA in the absence of chemical substance (yeast gene YIR038C): 2.5
The level of expressed mRNA in the presence of chemical substance/The level of expressed mRNA in the absence of chemical substance (yeast gene YJL128C): 1.3
The level of expressed mRNA in the presence of chemical substance/The level of expressed mRNA in the absence of chemical substance (yeast gene YJL158C): 0.5
The level of expressed mRNA in the presence of chemical substance/The level of expressed mRNA in the absence of chemical substance (yeast gene YJL159W): 1.8
The level of expressed mRNA in the presence of chemical substance/The level of expressed mRNA in the absence of chemical substance (yeast gene YJL165C): 0.5
The level of expressed mRNA in the presence of chemical substance/The level of expressed mRNA in the absence of chemical substance (yeast gene YJR045C): 1.2
The level of expressed mRNA in the presence of chemical substance/The level of expressed mRNA in the absence of chemical substance (yeast gene YJR090C): 1.2
The level of expressed mRNA in the presence of chemical substance/The level of expressed mRNA in the absence of chemical substance (yeast gene YKL161C): 2.0
The level of expressed mRNA in the presence of chemical substance/The level of expressed mRNA in the absence of chemical substance (yeast gene YKL163W): 1.1
The level of expressed mRNA in the presence of chemical substance/The level of expressed mRNA in the absence of chemical substance (yeast gene YKL164C): 1.4
The level of expressed mRNA in the presence of chemical substance/The level of expressed mRNA in the absence of chemical substance (yeast gene YKL210W): 1.4
The level of expressed mRNA in the presence of chemical substance/The level of expressed mRNA in the absence of chemical substance (yeast gene YKR053C): 1.1
The level of expressed mRNA in the presence of chemical substance/The level of expressed mRNA in the absence of chemical substance (yeast gene YLL024C): 1.0
The level of expressed mRNA in the presence of chemical substance/The level of expressed mRNA in the absence of chemical substance (yeast gene YLL026W): 1.9
The level of expressed mRNA in the presence of chemical substance/The level of expressed mRNA in the absence of chemical substance (yeast gene YLL039C): 1.5
The level of expressed mRNA in the presence of chemical substance/The level of expressed mRNA in the absence of chemical substance (yeast gene YLL060C): 1.4
The level of expressed mRNA in the presence of chemical substance/The level of expressed mRNA in the absence of chemical substance (yeast gene YLR006C): 0.9
The level of expressed mRNA in the presence of chemical substance/The level of expressed mRNA in the absence of chemical substance (yeast gene YLR109W): 2.1
The level of expressed mRNA in the presence of chemical substance/The level of expressed mRNA in the absence of chemical substance (yeast gene YLR259C): 0.9
The level of expressed mRNA in the presence of chemical substance/The level of expressed mRNA in the absence of chemical substance (yeast gene YML007W): 0.5
The level of expressed mRNA in the presence of chemical substance/The level of expressed mRNA in the absence of chemical substance (yeast gene YML070W): 2.2
The level of expressed mRNA in the presence of chemical substance/The level of expressed mRNA in the absence of chemical substance (yeast gene YMR021C): 2.2
The level of expressed mRNA in the presence of chemical substance/The level of expressed mRNA in the absence of chemical substance (yeast gene YMR173W): 5.0
The level of expressed mRNA in the presence of chemical substance/The level of expressed mRNA in the absence of chemical substance (yeast gene YMR186W): 1.3
The level of expressed mRNA in the presence of chemical substance/The level of expressed mRNA in the absence of chemical substance (yeast gene YNL064C): 0.8
The level of expressed mRNA in the presence of chemical substance/The level of expressed mRNA in the absence of chemical substance (yeast gene YNL160W): 5.8
The level of expressed mRNA in the presence of chemical substance/The level of expressed mRNA in the absence of chemical substance (yeast gene YNL241C): 0.9
The level of expressed mRNA in the presence of chemical substance/The level of expressed mRNA in the absence of chemical substance (yeast gene YNR076W): 1.2
The level of expressed mRNA in the presence of chemical substance/The level of expressed mRNA in the absence of chemical substance (yeast gene YOL064C): 1.4
The level of expressed mRNA in the presence of chemical substance/The level of expressed mRNA in the absence of chemical substance (yeast gene YOL161C): 1.0
The level of expressed mRNA in the presence of chemical substance/The level of expressed mRNA in the absence of chemical substance (yeast gene YOR008C): 1.1
The level of expressed mRNA in the presence of chemical substance/The level of expressed mRNA in the absence of chemical substance (yeast gene YOR009W): 0.9
The level of expressed mRNA in the presence of chemical substance/The level of expressed mRNA in the absence of chemical substance (yeast gene YOR010C): 0.5
The level of expressed mRNA in the presence of chemical substance/The level of expressed mRNA in the absence of chemical substance (yeast gene YOR027W): 1.6
The level of expressed mRNA in the presence of chemical substance/The level of expressed mRNA in the absence of chemical substance (yeast gene YOR208W): 1.8
The level of expressed mRNA in the presence of chemical substance/The level of expressed mRNA in the absence of chemical substance (yeast gene YPL059W): 1.3
The level of expressed mRNA in the presence of chemical substance/The level of expressed mRNA in the absence of chemical substance (yeast gene YPL106C): 1.6
The level of expressed mRNA in the presence of chemical substance/The level of expressed mRNA in the absence of chemical substance (yeast gene YPL140C): 0.3
The level of expressed mRNA in the presence of chemical substance/The level of expressed mRNA in the absence of chemical substance (yeast gene YPL194W): 1.1
The level of expressed mRNA in the presence of chemical substance/The level of expressed mRNA in the absence of chemical substance (yeast gene YPL223C): 1.5
The level of expressed mRNA in the presence of chemical substance/The level of expressed mRNA in the absence of chemical substance (yeast gene YPL240C): 1.2
The level of expressed mRNA in the presence of chemical substance/The level of expressed mRNA in the absence of chemical substance (yeast gene YPR005C): 0.8
